# Experimental data from patent publication US12083137B2, “Triazole bisphosphonate geranylgeranyl diphosphate synthase inhibitors” (BOARD OF REGENTS OF THE UNIVERSITY OF NEBRASKA, priority 2017, dated 2024).
# Where two headings read alike, the source gives them in different places.
# How the values were obtained:
# Recombinant GGDPS = Recombinant GGDPS (Homo sapiens (Human), UniProt O95749); test: GGDPS enzyme assay; format: biochemical; settings: for Selectivity for GGDPS to FDPS: ratio FDPS IC50 / GGDPS IC50
# Procedure: (§1) FIG. 9 GGDPS and FDPS enzyme assay data for compounds 19, 20, and 21. Each assay was performed in three independent experiments (R1, R2, R3) and each compound was tested in duplicate at each concentration.
# (§2) Each assay was performed in three independent experiments (R1, R2, R3) and each compound was tested in duplicate at each concentration.
# GGDPS Enzyme assay (FIG. 9, 10, 11): Recombinant GGDPS was obtained from MyBioSource (San Diego, CA). Recombinant enzyme (20 nM GGDPS) was incubated with assay buffer (50 mM Tris-HCl, pH 7.7, 20 mM MgCl2, 5 mM TCEP, 5 μg/mL BSA) and test compounds for 10 minutes at room temperature. The reaction was initiated by the addition of 10 μM FPP and 10 μM [^14C]-IPP and was carried out at 37° C. for 30 minutes. The reaction was stopped by the addition of saturated NaCl. Radiolabeled GGPP was extracted with n-butanol and counted via liquid scintillation counting. CompuSyn software (ComboSyn, Inc.) was used to analyze the concentration response curves and determine the IC50 values.
# RPMI-8226 cells [1] = test: Cellular protein geranylgeranylation: Rap1a immunoblot plus intracellular lambda light chain ELISA; format: cell-based, Human; settings: 48 h; for Cellular LEC (lowest effective concentration): lowest concentration with visible unmodified Rap1a band and statistically significant increase in intracellular lambda light chain; for relative cellular activity (comparison in words): myeloma cells
# Procedure: (§3) RPMI-8226 cells were incubated for 48 h in the presence or absence of lovastatin (Lov, 10 μM) or varying concentrations of the test compounds. Intracellular lambda light chain concentrations were determined via ELISA. Data are expressed as a percentage of control (mean±SD, n=3). The * denotes p<0.05 per unpaired two-tailed t-test.
# The impact of substituents at the α-carbon of the compounds disclosed herein on cellular activity was assessed in myeloma cells. Impairment of cellular protein geranylgeranylation was determined via two methods: 1) ELISA for intracellular lambda light chain which is a marker for disruption of Rab GTPase geranyl-geranylation (FIGS. 1, 3, 5, 7) and 2) immunoblot analysis for unmodified Rap1a (a substrate of GGTase I) (FIGS. 2, 4, 6, 8). Lovastatin, an HMG-CoA reductase inhibitor, was included as a positive control. […] Next, the impact of the olefin stereochemistry on biological activity was determined.
# Immunoblot analysis (FIG. 2, 4, 6, 8): Multiple myeloma cells were incubated (37° C. and 5% CO2) with test compounds for 48 hours in RPMI-1640 media containing 10% fetal bovine serum and penicillin-streptomycin. Whole cell lysate was obtained using RIPA buffer (0.15 M NaCl, 1% sodium deoxycholate, 0.1% SODS, 1% Triton (v/v) X-100, 0.05 M Tris HCl) containing protease and phosphatase inhibitors. Protein content was determined using the bicinchoninic acid (BCA) method (Pierce Chemical, Rockford, IL). Equivalent amounts of cell lysate were resolved by SODS-PAGE, transferred to polyvinylidene difluoride membrane, probed with the appropriate primary antibodies, and detected using HRP-linked secondary antibodies and Bio-Rad Clarity ECL Substrate Western blotting reagents per manufacturer's protocols.
# (§4) Lambda light chain ELISA (FIG. 1, 3, 5, 7): Human lambda light chain kit (Bethyl Laboratories, Montgomery, TX) was used to quantify intracellular monoclonal protein levels of whole cell lysate. Lambda light chain levels were normalized to total protein levels (as determined by BCA).
# FDPS = FDPS (Homo sapiens (Human), UniProt P14324); test: FDPS enzyme assay; format: biochemical
# Procedure: as §1, §2
# RPMI-8226 cells [2] = test: Lambda light chain ELISA (intracellular lambda light chain, marker of Rab GTPase geranylgeranylation disruption); format: cell-based, Human; settings: 48 h
# Procedure: as §3, §4
# [3] = 20 nM recombinant GGDPS, 10 μM FPP, 10 μM [14C]-IPP, 37° C. 30 minutes, read-out: GGDPS IC50
# Chain of FDPS (P14324 whole entry, species assumed): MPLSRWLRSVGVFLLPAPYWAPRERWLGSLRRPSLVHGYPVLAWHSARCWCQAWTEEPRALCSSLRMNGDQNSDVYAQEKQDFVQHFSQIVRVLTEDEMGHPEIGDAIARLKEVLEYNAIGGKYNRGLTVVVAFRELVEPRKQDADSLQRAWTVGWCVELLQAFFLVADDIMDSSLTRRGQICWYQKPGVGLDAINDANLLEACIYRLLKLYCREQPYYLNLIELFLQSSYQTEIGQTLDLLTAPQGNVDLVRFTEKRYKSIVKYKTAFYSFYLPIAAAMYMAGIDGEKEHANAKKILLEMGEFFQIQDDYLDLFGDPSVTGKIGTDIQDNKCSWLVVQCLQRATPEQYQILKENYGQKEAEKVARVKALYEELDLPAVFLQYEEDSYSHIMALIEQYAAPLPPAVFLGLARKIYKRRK
# Chain of Recombinant GGDPS (O95749 whole entry): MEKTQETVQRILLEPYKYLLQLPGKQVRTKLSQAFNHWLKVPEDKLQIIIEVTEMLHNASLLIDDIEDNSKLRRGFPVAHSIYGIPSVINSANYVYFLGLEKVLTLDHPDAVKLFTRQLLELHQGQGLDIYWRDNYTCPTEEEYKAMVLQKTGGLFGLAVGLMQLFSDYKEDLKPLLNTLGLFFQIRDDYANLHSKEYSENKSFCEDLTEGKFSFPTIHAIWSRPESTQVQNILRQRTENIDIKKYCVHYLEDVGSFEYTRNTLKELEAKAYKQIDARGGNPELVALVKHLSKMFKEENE
SMILES,IC50 (Recombinant GGDPS),relative GGDPS inhibitory activity in enzymatic assays (comparison in words) (Recombinant GGDPS),Selectivity for GGDPS to FDPS (Recombinant GGDPS),Cellular LEC (lowest effective concentration) (RPMI-8226 cells [1]),IC50 (FDPS),relative cellular activity (comparison in words) (RPMI-8226 cells [1]),IC50 (Recombinant GGDPS; [3]),IC50 (FDPS; read-out: FDPS IC50),"cellular potency of Z-isomer relative to the E-isomer 21 (RPMI-8226 cells [2]; FIG. 5, RPMI-8226 cells)",specificity (selectivity) for GGDPS over FDPS (Recombinant GGDPS),"improvement in cellular activity of POM-version versus corresponding salt 17 (RPMI-8226 cells [2]; FIG. 7, RPMI-8226 cells)"
"CC(C)=CCCC(C)=CCCn1cc(CC(C)(P(=O)([O-])[O-])P(=O)([O-])[O-])nn1.[Na+].[Na+].[Na+].[Na+] [Compound 16, Sodium (1-(1-(4,8-dimethylnona-3,7-dien-1-yl)-1H-1,2,3-triazol-4-yl)propane-2,2-diyl)bis(phosphonate)]",1.27 ± 0.303 µM,very similar to the individual isomers,49,0.1 µM,62.2 ± 7.22 µM,,,,,,
"CC(C)=CCC/C(C)=C\CCn1cc(CC(C)(P(=O)([O-])[O-])P(=O)([O-])[O-])nn1.[Na+].[Na+].[Na+].[Na+] [Compound 17, Sodium (Z)-(1-(1-(4,8-dimethylnona-3,7-dien-1-yl)-1H-1,2,3-triazol-4-yl)propane-2,2-diyl)bis(phosphonate)]",0.92 ± 0.089 µM,,>108,0.1 µM,> 100 µM,,,,,,
"CC(C)=CCC/C(C)=C/CCn1cc(CC(C)(P(=O)([O-])[O-])P(=O)([O-])[O-])nn1.[Na+].[Na+].[Na+].[Na+] [Compound 18, Sodium (E)-(1-(1-(4,8-dimethylnona-3,7-dien-1-yl)-1H-1,2,3-triazol-4-yl)propane-2,2-diyl)bis(phosphonate)]",20.5 ± 2.3 µM,,3.5,5.0 µM,71.4 ± 24.2 µM,slightly more potent than the Z-isomer,,,,,
"CC(C)=CCCC(C)=CCn1cc(CC(C)(P(=O)([O-])[O-])P(=O)([O-])[O-])nn1.[Na+].[Na+].[Na+].[Na+] [Compound 19, Sodium (1-(1-(3,7-dimethylocta-2,6-dien-1-yl)-1H-1,2,3-triazol-4-yl)propane-2,2-diyl)bis(phosphonate)]",,more potent than its corresponding non-methylated analogue 31,241,0.03 µM,,,0.1 ± 0.019 µM,24.1 ± 3.15 µM,,,
"CC(C)=CCC/C(C)=C\Cn1cc(CC(C)(P(=O)([O-])[O-])P(=O)([O-])[O-])nn1.[Na+].[Na+].[Na+].[Na+] [Compound 20, Sodium (Z)-(1-(1-(3,7-dimethylocta-2,6-dien-1-yl)-1H-1,2,3-triazol-4-yl)propane-2,2-diyl)bis(phosphonate)]",,more potent than the E isomer 21,693,0.025 µM,,,0.086 ± 0.022 µM,59.6 ± 15 µM,approximately 50 fold,,
"CC(C)=CCC/C(C)=C/Cn1cc(CC(C)(P(=O)([O-])[O-])P(=O)([O-])[O-])nn1.[Na+].[Na+].[Na+].[Na+] [Compound 21, Sodium (E)-(1-(1-(3,7-dimethylocta-2,6-dien-1-yl)-1H-1,2,3-triazol-4-yl)propane-2,2-diyl)bis(phosphonate)]",,,345,0.02 µM,,,0.125 ± 0.027 µM,43.1 ± 2.98 µM,,at least 3.5 fold,
"CC(C)=CCC/C(C)=C\CCn1cc(CC(C)(P(=O)(OCOC(=O)C(C)(C)C)OCOC(=O)C(C)(C)C)P(=O)(OCOC(=O)C(C)(C)C)OCOC(=O)C(C)(C)C)nn1 [Compound 25, (Z)-(((1-(1-(4,8-dimethylnona-3,7-dien-1-yl)-1H-1,2,3-triazol-4-yl)propane-2,2-diyl)bis(oxo-15-phosphanetriyl))tetrakis(oxy))tetrakis(methylene) tetrakis(2,2-dimethylpropanoate)]",,,,,,,,,,,approximately 10 fold
CCC(Cc1cn(C/C=C(\C)CCC=C(C)C)nn1)(P(=O)(O)O)P(=O)(O)O [Compound 28],,,16,2.5 µM,,less potent than either the parent compound 31,5.85 ± 1.3 µM,94.3 ± 20.6 µM,,,
